Laboratory results from US20240400521A1, “QUINAZOLINE COMPOUND, COMPOSITION, AND APPLICATION THEREOF” (BEIJING SCITECH-MQ PHARMACEUTICALS LIMITED, priority 2021, published 2024).

Key:
[1] = molecular target: Ba/F3-EGFR-VIII cells (Homo sapiens, UniProt P00533, DELINS30-297G, cells depend on it); assay: Inhibition of cell proliferation, CTG method, Ba/F3-EGFR-VIII; type: cell-based; conditions: 72 hours, read-out: Ba/F3 EGFRvIII IC50
From the text: (§1) The present application examined the in vitro anti-proliferative activity of the compounds of the present disclosure against in vitro cultured HCC-827, Ba/F3-EGFR-VIII and Ba/F3 EGFR D770_N771insSVD cell lines by CTG method.
(§2) Reagents and consumables: RPMI1640 (ThermoFisher, Cat. No. C11875500BT); DMEM (ThermoFisher, C11995500BT); fetal bovine serum (Hyclone, Cat. No. SV30087.03); 0.25% trypsin-EDTA (ThermoFisher, Cat. No. 25200072); penicillin-streptomycin (Hyclone, Cat. No. SV30010); DMSO (Life Science, Cat. No. 0231-500ML); CTG assay kit (Promega, Cat. No. G9243); 96-well plate (Corning, Cat. No. 3599); multifunctional plate reader (Perkin Elmer, Cat. No. Envision)
(§3) Cell lines: HCC-827 (from ATCC), Ba/F3-EGFR-VIII and Ba/F3 EGFR D770_N771insSVD (all from KYinno Biotechnology (Beijing) Co., Ltd.); all of the above cells were cultured with RPMI1640 medium containing 10% fetal bovine serum, 100 U/mL penicillin, and 100 μg/mL streptomycin in the culture process, and HCC-827 was cultured with DMEM medium containing 10% fetal bovine serum, 100 U/mL penicillin, and 100 μg/mL streptomycin.
(§4) • 1. The assay compound was dissolved with DMSO to form a stock solution and a gradient dilution was performed, followed by dilution with the corresponding medium to obtain a solution with 5-fold working concentration. • 2. Cells in logarithmic growth phase were adjusted to specific cell densities by dilution with culture medium, and 80 μL of cell suspension was added to a 96-well plate, such that plating densities of cells of HCC-827, Ba/F3-EGFR-VIII and Ba/F3 EGFR D770_N771insSVD were all 3000 cells/well. The cells of Ba/F3-EGFR-VIII and Ba/F3 EGFR D770_N771insSVD were used directly in the next step (treatment with compound), whereas the HCC-827 needed to be cultured overnight in a 37° C., 5% carbon dioxide gas incubator to adhere to the wall, and then treated with compounds. • 3. 20 μL of compound solution was added to each well of the 96-well plate that had been inoculated with cells. The highest concentration of the assayed compound was 10 μM, 4-fold serial dilution, a total of 9 concentrations, and duplicate wells. A control group without compound was also set up. • 4. The cells were cultured for another 72 hours, and then cell viability was detected by CTG assay kit. Signal values were read with a multifunctional plate reader (Perkin Elmer). GraphPad Prism software was used to create a dose-response curve and IC50 was calculated.

[2] = molecular target: T1, EGFR^WT kinase (Homo sapiens, UniProt P00533); assay: EGFR^WT kinase assay (ULight peptide / Eu-PT66 antibody detection); type: biochemical
T1 construct: purchased Carna Biosciences 08-115
From the text: (§5) Reagents and consumables: ULight™-labeled Ploy GT Peptide (Perkin Elmer, Cat. No. TRF-0100-M); ULight™-labeled JAK-1 (Try1023) Peptide (Perkin Elmer, Cat. No. TRF-0121-M); Eu-W1024-labeled Anti-Phosphotyrosine Antibody (PT66) (Perkin Elmer, Cat. No. AD0068); 10×Detection Buffer (Perkin Elmer, Cat. No. CR97-100); HER2 Kinase (Carna Biosciences, Cat. No. 08-016); EGFR kinase (Carna Biosciences, Cat. No. 08-115); HEPES (GIBCO, Cat. No. 15630-080); EGTA (Sigma, Cat. No. 03777-10G); EDTA (Sigma, Cat. No. EDS-100G); MgCl2 (Sigma, Cat. No. 63069-100ML); DTT (Sigma, Cat. No. 43816-10ML); Tween-20 (Sigma, Cat. No. P7949-100ML); DMSO (Life Science, Cat. No. 0231-500ML); 384-well plates (Perkin Elmer, Cat. No. 607290); multifunctional plate reader (Perkin Elmer, Cat. No. Envision)
(§6) Preparation of compound solution: The assay compound was dissolved in DMSO to form a 10 mM stock solution. Prior to use, the compound was diluted to 0.25 mM in DMSO (100 times the final concentration of the diluent) and then subjected to a 3-fold concentration gradient dilution to obtain a total of 11 concentrations. The solution was diluted with buffer to a diluent with 4× the final concentration when the drug was added.
(§7) EGFR^WT kinase assay: buffer was prepared, and 3.48 nM 4× EGFR kinase solution, 600 μM 4× ATP solution, and 400 nM 4×ULight™-labeled JAK-1 (Try1023) Peptide substrate solution was prepared using the buffer. After the preparation was completed, the enzyme was mixed with different concentrations of compounds pre-prepared by dilution, and the mixture was left to stand at room temperature for 5 min. Each concentration was performed in duplicate. The corresponding substrate and ATP were added and the mixture was reacted at room temperature for 120 minutes (with negative and positive controls). After completion of the reaction, PT66 detection antibody was added. The mixture was incubated at room temperature for 60 minutes, and then detected by Envision.
(§8) Data Calculation: the reading of well and inhibition rate were calculated using Excel, wherein reading of well=10000*(well EU665 value)/(well EU615 value), and inhibition rate=[(reading of positive control well−reading of assay well)/(reading of positive control well−reading of negative control well)]*100%. Compound concentrations and corresponding inhibition rates were input into GraphPad Prism for processing to calculate IC50 values.

[3] = tested on: HCC-827 cells; assay: Inhibition of cell proliferation, CTG method, HCC-827; type: cell-based; conditions: Homo sapiens, HCC827, 72 hours
From the text: as §1, §2, §3, §4

[4] = molecular target: Ba/F3 EGFR D770_N771insSVD cells (Homo sapiens, UniProt P00533, DUP768-770, cells depend on it); assay: Inhibition of cell proliferation, CTG method, Ba/F3 EGFR D770_N771insSVD; type: cell-based; conditions: 72 hours, read-out: Ba/F3 EGFR D770_N771insSVD IC50
From the text: as §1, §2, §3, §4

[5] = molecular target: T2, HER2 kinase (Homo sapiens, UniProt P04626); assay: HER2 kinase assay (ULight peptide / Eu-PT66 antibody detection); type: biochemical
T2 construct: purchased Carna Biosciences 08-016
From the text: as §5, §6
as §7, with “HER2 kinase” for “EGFR^WT kinase”, “and 40” for “and 3.48”, “4× HER2” for “4× EGFR”, “solution, 40” for “solution, 600”, “4×ULight™-labeled Ploy GT” for “4×ULight™-labeled JAK-1 (Try1023)”, “solution were” for “solution was”
as §8

Sequence of Ba/F3-EGFR-VIII cells (P00533 with tags, fused parts or gaps DELINS30-297G): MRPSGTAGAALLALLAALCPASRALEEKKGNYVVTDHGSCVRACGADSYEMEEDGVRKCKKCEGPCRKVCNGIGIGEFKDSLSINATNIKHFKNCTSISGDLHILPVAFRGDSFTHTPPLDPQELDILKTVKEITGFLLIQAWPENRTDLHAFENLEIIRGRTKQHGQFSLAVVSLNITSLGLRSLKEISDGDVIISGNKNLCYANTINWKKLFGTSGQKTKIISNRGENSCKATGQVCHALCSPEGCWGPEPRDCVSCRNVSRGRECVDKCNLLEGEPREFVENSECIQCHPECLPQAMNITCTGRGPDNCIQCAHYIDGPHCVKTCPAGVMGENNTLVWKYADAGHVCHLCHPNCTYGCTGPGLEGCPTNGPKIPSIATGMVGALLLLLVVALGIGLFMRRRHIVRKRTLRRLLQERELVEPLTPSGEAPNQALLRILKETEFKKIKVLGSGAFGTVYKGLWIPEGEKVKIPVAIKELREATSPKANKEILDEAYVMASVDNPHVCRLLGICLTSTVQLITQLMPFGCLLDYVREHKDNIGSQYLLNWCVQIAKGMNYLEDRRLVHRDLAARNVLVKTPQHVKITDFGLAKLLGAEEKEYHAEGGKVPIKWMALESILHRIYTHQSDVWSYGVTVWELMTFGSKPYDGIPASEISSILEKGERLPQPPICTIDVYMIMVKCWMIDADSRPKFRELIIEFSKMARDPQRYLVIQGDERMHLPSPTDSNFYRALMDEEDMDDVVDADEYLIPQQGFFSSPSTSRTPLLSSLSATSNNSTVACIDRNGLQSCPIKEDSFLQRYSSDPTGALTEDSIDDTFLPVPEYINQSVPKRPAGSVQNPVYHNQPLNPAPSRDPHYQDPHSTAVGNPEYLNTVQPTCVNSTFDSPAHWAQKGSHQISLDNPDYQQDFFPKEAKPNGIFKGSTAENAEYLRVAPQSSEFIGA
T2 sequence (P04626 23-1255): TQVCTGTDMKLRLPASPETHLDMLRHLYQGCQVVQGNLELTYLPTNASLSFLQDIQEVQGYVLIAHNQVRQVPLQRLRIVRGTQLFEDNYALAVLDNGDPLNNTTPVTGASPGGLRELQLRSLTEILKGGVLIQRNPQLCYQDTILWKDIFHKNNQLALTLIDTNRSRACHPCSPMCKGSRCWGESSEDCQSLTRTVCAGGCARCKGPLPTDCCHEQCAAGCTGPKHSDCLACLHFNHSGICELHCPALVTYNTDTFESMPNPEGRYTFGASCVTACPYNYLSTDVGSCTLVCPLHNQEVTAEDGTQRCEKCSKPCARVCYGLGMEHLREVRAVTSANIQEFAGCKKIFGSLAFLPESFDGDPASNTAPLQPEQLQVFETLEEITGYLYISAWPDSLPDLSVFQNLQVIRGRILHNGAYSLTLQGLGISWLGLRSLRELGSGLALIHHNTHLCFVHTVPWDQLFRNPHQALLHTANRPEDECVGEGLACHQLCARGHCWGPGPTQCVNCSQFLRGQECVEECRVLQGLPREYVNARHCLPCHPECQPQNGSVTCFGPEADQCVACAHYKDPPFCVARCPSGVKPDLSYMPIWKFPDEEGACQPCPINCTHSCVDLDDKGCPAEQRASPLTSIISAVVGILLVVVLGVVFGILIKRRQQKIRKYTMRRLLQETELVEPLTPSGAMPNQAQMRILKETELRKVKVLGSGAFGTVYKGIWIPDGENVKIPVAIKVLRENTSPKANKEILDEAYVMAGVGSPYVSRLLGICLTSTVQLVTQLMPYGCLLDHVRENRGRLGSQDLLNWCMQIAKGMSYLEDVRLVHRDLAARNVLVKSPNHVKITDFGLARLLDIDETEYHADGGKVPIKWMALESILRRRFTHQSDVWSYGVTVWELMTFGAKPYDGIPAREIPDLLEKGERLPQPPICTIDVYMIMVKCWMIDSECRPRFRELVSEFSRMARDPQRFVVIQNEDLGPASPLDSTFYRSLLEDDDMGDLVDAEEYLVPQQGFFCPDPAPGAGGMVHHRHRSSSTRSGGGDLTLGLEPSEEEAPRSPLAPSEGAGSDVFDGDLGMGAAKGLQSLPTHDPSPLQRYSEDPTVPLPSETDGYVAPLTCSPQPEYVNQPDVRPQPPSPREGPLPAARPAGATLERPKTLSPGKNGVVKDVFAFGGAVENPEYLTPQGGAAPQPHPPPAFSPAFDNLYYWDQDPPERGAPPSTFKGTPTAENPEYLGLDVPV
Sequence of Ba/F3 EGFR D770_N771insSVD cells (P00533 with tags, fused parts or gaps DUP768-770): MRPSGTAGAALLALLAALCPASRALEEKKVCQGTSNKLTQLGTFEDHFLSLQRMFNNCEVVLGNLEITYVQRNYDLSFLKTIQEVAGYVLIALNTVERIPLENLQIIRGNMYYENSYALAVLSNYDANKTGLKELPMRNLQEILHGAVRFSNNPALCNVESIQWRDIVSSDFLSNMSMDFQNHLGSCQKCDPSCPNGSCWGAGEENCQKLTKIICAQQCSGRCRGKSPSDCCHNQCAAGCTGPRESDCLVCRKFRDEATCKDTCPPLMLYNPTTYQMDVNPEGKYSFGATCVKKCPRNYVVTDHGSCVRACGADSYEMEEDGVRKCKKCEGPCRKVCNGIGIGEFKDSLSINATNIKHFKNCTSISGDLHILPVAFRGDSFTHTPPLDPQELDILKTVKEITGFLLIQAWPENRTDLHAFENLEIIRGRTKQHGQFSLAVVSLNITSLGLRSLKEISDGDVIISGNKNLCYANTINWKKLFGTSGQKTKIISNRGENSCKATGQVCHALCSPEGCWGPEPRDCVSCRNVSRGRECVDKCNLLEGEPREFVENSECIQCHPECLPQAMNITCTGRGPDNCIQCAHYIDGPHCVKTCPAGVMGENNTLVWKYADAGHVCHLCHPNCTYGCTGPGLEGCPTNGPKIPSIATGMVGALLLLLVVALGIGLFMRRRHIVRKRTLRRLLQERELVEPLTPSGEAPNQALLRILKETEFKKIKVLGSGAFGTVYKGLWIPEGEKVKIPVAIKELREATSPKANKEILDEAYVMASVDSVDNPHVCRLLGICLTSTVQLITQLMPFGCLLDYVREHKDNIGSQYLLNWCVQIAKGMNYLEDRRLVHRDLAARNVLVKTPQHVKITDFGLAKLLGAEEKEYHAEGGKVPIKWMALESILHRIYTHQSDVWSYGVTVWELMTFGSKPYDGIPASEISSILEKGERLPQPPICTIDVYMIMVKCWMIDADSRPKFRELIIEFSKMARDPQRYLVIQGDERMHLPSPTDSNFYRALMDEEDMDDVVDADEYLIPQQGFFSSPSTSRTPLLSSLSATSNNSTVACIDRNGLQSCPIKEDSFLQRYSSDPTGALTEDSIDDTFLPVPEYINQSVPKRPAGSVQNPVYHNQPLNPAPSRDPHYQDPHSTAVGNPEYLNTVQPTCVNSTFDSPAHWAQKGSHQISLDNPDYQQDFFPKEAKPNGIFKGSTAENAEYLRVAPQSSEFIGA
T1 sequence (P00533 25-1210): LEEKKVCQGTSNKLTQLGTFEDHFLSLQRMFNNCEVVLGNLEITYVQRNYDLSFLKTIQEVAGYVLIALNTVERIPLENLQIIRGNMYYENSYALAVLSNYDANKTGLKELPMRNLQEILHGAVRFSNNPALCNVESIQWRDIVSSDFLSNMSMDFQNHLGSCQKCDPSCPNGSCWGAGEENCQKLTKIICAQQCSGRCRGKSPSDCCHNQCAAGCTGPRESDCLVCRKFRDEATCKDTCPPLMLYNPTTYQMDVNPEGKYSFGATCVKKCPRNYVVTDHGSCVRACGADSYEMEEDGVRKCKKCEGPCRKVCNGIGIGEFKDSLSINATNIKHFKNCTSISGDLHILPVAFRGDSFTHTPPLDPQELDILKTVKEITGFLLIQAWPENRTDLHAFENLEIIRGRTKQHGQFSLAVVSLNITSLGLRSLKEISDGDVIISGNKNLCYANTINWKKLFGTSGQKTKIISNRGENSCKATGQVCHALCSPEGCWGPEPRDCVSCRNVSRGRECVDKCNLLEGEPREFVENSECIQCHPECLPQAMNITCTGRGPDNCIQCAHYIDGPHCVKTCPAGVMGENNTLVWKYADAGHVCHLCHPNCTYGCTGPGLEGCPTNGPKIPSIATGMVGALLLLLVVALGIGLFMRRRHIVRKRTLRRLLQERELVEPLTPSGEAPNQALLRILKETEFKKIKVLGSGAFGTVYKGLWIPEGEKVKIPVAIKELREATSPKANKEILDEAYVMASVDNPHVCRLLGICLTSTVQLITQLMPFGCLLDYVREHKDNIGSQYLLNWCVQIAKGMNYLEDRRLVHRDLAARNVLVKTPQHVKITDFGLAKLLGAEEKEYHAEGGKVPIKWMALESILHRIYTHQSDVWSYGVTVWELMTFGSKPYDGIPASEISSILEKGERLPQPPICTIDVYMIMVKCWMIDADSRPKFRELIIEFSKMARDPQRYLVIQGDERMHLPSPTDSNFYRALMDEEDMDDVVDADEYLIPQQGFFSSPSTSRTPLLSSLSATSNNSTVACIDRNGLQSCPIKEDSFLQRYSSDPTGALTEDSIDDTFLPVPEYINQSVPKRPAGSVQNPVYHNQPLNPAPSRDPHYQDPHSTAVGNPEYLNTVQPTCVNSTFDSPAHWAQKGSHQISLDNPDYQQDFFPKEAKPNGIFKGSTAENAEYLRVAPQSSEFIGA

SMILES | GI50 [1] [nM] | IC50 [2] [nM] | IC50 [3] [nM] | GI50 [4] [nM] | IC50 [5] [nM]
CN(C)C/C=C/C(=O)Nc1ccc2ncnc(Nc3cccc(Cl)c3F)c2c1OCCCO [Example 11, (E)-N-(4-((3-chloro-2-fluorophenyl)amino)-5-(3-hydroxypropoxy)quinazolin-6-yl)-4-(dimethylamino)but-2-enamide] | ≤ 5 | ≤ 1 | ≤ 5 | 50 to 500 | 100 to 1000
CN(C)C/C=C/C(=O)Nc1ccc2ncnc(Nc3cccc(Cl)c3F)c2c1OCCC(F)(F)F [Example 18, (E)-N-(4-((3-chloro-2-fluorophenyl)amino)-5-(3,3,3-trifluoropropoxy)quinazolin-6-yl)-4-(dimethylamino)but-2-enamide] | 5 to 50 | ≤ 1 | ≤ 5 | 50 to 500 | 100 to 1000
COc1c(NC(=O)/C=C/CN(C)C2CC2)ccc2ncnc(Nc3cccc(Cl)c3F)c12 [Example 2, (E)-N-(4-((3-chloro-2-fluorophenyl)amino)-5-methoxyquinazolin-6-yl)-4-(cyclopropyl(methyl)amino)but-2-enamide] | 5 to 50 | 1 to 10 | ≤ 5 | 50 to 500 | 100 to 1000
COCCOc1c(NC(=O)/C=C/CN(C)C)ccc2ncnc(Nc3cccc(Cl)c3F)c12 [Example 3, (E)-N-(4-((3-chloro-2-fluorophenyl)amino)-5-(2-methoxyethoxy)quinazolin-6-yl)-4-(dimethylamino)but-2-enamide] | ≤ 5 | ≤ 1 | ≤ 5 | 50 to 500 | 10 to 100
CN(C)C/C=C/C(=O)Nc1ccc2ncnc(Nc3cccc(Cl)c3F)c2c1OCCCF [Example 15, (E)-N-(4-((3-chloro-2-fluorophenyl)amino)-5-(3-fluoropropoxy)quinazolin-6-yl)-4-(dimethylamino)but-2-enamide] | 5 to 50 | ≤ 1 | ≤ 5 | 50 to 500 | 10 to 100
CSCCOc1c(NC(=O)/C=C/CN(C)C)ccc2ncnc(Nc3cccc(Cl)c3F)c12 [Example 12, (E)-N-(4-((3-chloro-2-fluorophenyl)amino)-5-(2-(methylthio)ethoxy)quinazolin-6-yl)-4-(dimethylamino)but-2-enamide] | 5 to 50 | ≤ 1 | 5 to 50 | – | 10 to 100
COc1c(NC(=O)/C=C/CN(C)C)ccc2ncnc(Nc3ccc(Cl)c(Cl)c3F)c12 [Example 19, (E)-N-(4-((3,4-dichloro-2-fluorophenyl)amino)-5-methoxyquinazolin-6-yl)-4-(dimethylamino)but-2-enamide] | 5 to 50 | ≤ 1 | ≤ 5 | 50 to 500 | 10 to 100
COc1c(NC(=O)/C=C/CN(C)C(C)C)ccc2ncnc(Nc3cccc(Cl)c3F)c12 [Example 8, (E)-N-(4-((3-chloro-2-fluorophenyl)amino)-5-methoxyquinazolin-6-yl)-4-(isopropyl(methyl)amino)but-2-enamide] | 5 to 50 | ≤ 1 | ≤ 5 | 50 to 500 | 10 to 100
COCCOc1c(NC(=O)/C=C/[C@H]2CCCN2C)ccc2ncnc(Nc3ccc(Cl)c(Cl)c3F)c12 [Example 24, (R,E)-N-(4-((3,4-dichloro-2-fluorophenyl)amino)-5-(2-methoxyethoxy)quinazolin-6-yl)-3-(1-methylpyrrolidin-2-yl)acrylamide] | – | ≤ 1 | ≤ 5 | 50 to 500 | 10 to 100
COc1c(NC(=O)/C=C/[C@H]2CCCN2C)ccc2ncnc(Nc3ccc(Cl)c(Cl)c3F)c12 [Example 20, (R,E)-N-(4-((3,4-dichloro-2-fluorophenyl)amino)-5-methoxyquinazolin-6-yl)-3-(1-methylpyrrolidin-2-yl)acrylamide] | – | ≤ 1 | ≤ 5 | 50 to 500 | 1 to 10
COCCOc1c(NC(=O)/C=C/CN(C)C)ccc2ncnc(Nc3ccc(Cl)c(Cl)c3F)c12 [Example 23, (E)-N-(4-((3,4-dichloro-2-fluorophenyl)amino)-5-(2-methoxyethoxy)quinazolin-6-yl)-4-(dimethylamino)but-2-enamide] | – | ≤ 1 | ≤ 5 | 50 to 500 | 10 to 100
CN(C)C/C=C/C(=O)Nc1ccc2ncnc(Nc3ccc(Cl)c(Cl)c3F)c2c1OCCO [Example 21, (E)-N-(4-((3,4-dichloro-2-fluorophenyl)amino)-5-(2-hydroxyethoxy)quinazolin-6-yl)-4-(dimethylamino)but-2-enamide] | – | ≤ 1 | ≤ 5 | 5 to 50 | 10 to 100
CN1CCC[C@@H]1/C=C/C(=O)Nc1ccc2ncnc(Nc3ccc(Cl)c(Cl)c3F)c2c1OCCO [Example 22, (R,E)-N-(4-((3,4-dichloro-2-fluorophenyl)amino)-5-(2-hydroxyethoxy)quinazolin-6-yl)-3-(1-methylpyrrolidin-2-yl)acrylamide] | – | ≤ 1 | ≤ 5 | 5 to 50 | 1 to 10
CN(C)C/C=C/C(=O)Nc1ccc2ncnc(Nc3cccc(Cl)c3F)c2c1OCCCS(C)(=O)=O [Example 7, (E)-N-(4-((3-chloro-2-fluorophenyl)amino)-5-(3-(methylsulfonyl)propoxy)quinazolin-6-yl)-4-(dimethylamino)but-2-enamide] | 5 to 50 | ≤ 1 | ≤ 5 | – | 100 to 1000
